The text below walks through data of US8859580B2 (Boehringer Ingelheim International GmbH, priority 2007, dated 2014).

In this assay the target is T1, 11β-HSD1 (Homo sapiens, UniProt P28845).
T1 construct: detecting cortisol generated from cortisterone by human liver microsomes; from tissue; host or cells: human liver microsomes
The assay is described as follows: In vitro inhibition of 11β-HSD1, HTRF detection of cortisol generated from cortisone by human liver microsomes. Type of assay: biochemical. The note with it: 11β-HSD IC50 (nM), 1 hour at 37° C., pH 6.0, NADPH 200 μM, cortisone 80 nM, inhibition relative to carbenoxolone signal. On the procedure:
Cortisol generated in the reaction is then detected with a competitive immunoassay, involving two HTRF conjugates: cortisol linked to XL665 and anti-cortisol antibody labeled with Europium cryptate. The incubation period for detection reaction was typically 2 hours. […] The ratio of the two emission signals is then calculated (Em665*10000/Em615). […] Each assay also contained a calibration curve with cortisol to transform the fluorescent data into cortisol concentrations. Percent inhibition of each compound was determined relative to the carbenoxolone signal and IC50 curves were generated.

Structures are written as SMILES.

T1 sequence (P28845 whole entry): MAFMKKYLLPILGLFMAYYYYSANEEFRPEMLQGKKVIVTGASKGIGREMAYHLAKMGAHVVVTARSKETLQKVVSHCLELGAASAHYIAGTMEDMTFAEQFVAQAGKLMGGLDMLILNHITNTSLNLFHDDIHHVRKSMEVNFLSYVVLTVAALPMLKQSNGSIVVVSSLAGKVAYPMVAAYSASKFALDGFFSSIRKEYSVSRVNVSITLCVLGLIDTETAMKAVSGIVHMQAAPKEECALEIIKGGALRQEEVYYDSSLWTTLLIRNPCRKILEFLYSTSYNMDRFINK

Consider `Cc1ccc(C(=O)N2CC[C@@]3(C)c4cccc(O)c4C[C@@H]2C3(C)C)cc1` [Example 12, [(2R,6S)-10-Hydroxy-6,11,11-trimethyl-1,2,5,6-tetrahydro-4H-2,6-methano-benzo[d]azocin-3-yl]-p-tolyl-methanone], for which the IC50 is 792 nM.

Molecule `CC1(C)[C@H]2Cc3c(O)cccc3[C@]1(C)CCN2C(=O)c1ccc(C#N)cc1` [Example 13] showed an IC50 of 1610 nM.

`COc1ccc(C(=O)N2CC[C@@]3(C)c4cccc(O)c4C[C@@H]2C3(C)C)cc1` [Example 14, [(2R,6S)-10-Hydroxy-6,11,11-trimethyl-1,2,5,6-tetrahydro-4H-2,6-methano-benzo[d]azocin-3-yl]-(4-methoxy-phenyl)-methanone] displayed an IC50 of 734 nM.

Turning to `CC(=O)Nc1ccc(C(=O)N2CC[C@@]3(C)c4cccc(O)c4C[C@@H]2C3(C)C)cc1` [Example 15, N-{4-[(2R,6S)-10-Hydroxy-6,11,11-trimethyl-1,2,5,6-tetrahydro-4H-2,6-methano-benzo[d]azocine-3-carbonyl]-phenyl}-acetamide], the IC50 was determined as 354 nM.

Take `CC(O)(c1ccc(C(=O)N2CC[C@@]3(C)c4cccc(O)c4C[C@@H]2C3(C)C)cc1)C(F)(F)F` (stereo partly drawn) [Example 16, [(2R,6S)-10-Hydroxy-6,11,11-trimethyl-1,2,5,6-tetrahydro-4H-2,6-methano-benzo[d]azocin-3-yl]-[4-(2,2,2-trifluoro-1-hydroxy-1-methyl-ethyl)-phenyl]-methanone]: the midpoint of inhibition, the IC50, lay at 360 nM.

On to `Cc1nc2ccc(C(=O)N3CC[C@@]4(C)c5cccc(O)c5C[C@@H]3C4(C)C)cc2[nH]1` [Example 17, [(2R,6S)-10-Hydroxy-6,11,11-trimethyl-1,2,5,6-tetrahydro-4H-2,6-methano-benzo[d]azocin-3-yl]-(2-methyl-3H-benzoimidazol-5-yl)-methanone], for which half-maximal inhibition (IC50) required 1380 nM.

For the molecule `CC1(C)[C@H]2Cc3c(O)cccc3[C@]1(C)CCN2C(=O)c1cccc2[nH]cnc12` [Example 18, (1H-Benzoimidazol-4-yl)-[(2R,6S)-10-hydroxy-6,11,11-trimethyl-1,2,5,6-tetrahydro-4H-2,6-methano-benzo[d]azocin-3-yl]-methanone], the half-inhibitory concentration (IC50) was 3680 nM.

With `Cn1cnc2cc(C(=O)N3CC[C@@]4(C)c5cccc(O)c5C[C@@H]3C4(C)C)ccc21` [Example 19, [(2R,6S)-10-Hydroxy-6,11,11-trimethyl-1,2,5,6-tetrahydro-4H-2,6-methano-benzo[d]azocin-3-yl]-(1-methyl-1H-benzoimidazol-5-yl)-methanone], half-maximal inhibition (IC50) required 658 nM.

As to `CC1(C)[C@H]2Cc3c(O)cccc3[C@]1(C)CCN2C(=O)c1ccc2c(c1)OCCO2` [Example 20, (2,3-Dihydro-benzo[1,4]dioxin-6-yl)-[(2R,6S)-10-hydroxy-6,11,11-trimethyl-1,2,5,6-tetrahydro-4H-2,6-methano-benzo[d]azocin-3-yl]-methanone], 254 nM corresponded to half-maximal inhibition (IC50).

In turn, `CC1(C)[C@H]2Cc3c(O)cccc3[C@]1(C)CCN2C(=O)c1ccc2nn[nH]c2c1` [Example 21, (3H-Benzotriazol-5-yl)-[(2R,6S)-10-hydroxy-6,11,11-trimethyl-1,2,5,6-tetrahydro-4H-2,6-methano-benzo[d]azocin-3-yl]-methanone] yielded an IC50 of 669 nM.

Take `CC1(C)[C@H]2Cc3c(O)cccc3[C@]1(C)CCN2C(=O)c1ccc(CN2CCCCC2)cc1` [Example 22, [(2R,6S)-10-Hydroxy-6,11,11-trimethyl-1,2,5,6-tetrahydro-4H-2,6-methano-benzo[d]azocin-3-yl]-(4-piperidin-1-ylmethyl-phenyl)-methanone]: the 50% inhibitory concentration (IC50) stood at 5040 nM.

Regarding `CC1(C)[C@H]2Cc3c(O)cccc3[C@]1(C)CCN2C(=O)c1ccc(CN2CCOCC2)cc1` [Example 24, [(2R,6S)-10-Hydroxy-6,11,11-trimethyl-1,2,5,6-tetrahydro-4H-2,6-methano-benzo[d]azocin-3-yl]-(4-morpholin-4-ylmethyl-phenyl)-methanone], the IC50 is 134 nM.

In the case of `CC1(C)[C@H]2Cc3c(O)cccc3[C@]1(C)CCN2C(=O)c1ccc(N2CCOCC2)cc1` [Example 25, [(2R,6S)-10-Hydroxy-6,11,11-trimethyl-1,2,5,6-tetrahydro-4H-2,6-methano-benzo[d]azocin-3-yl]-(4-morpholin-4-yl-phenyl)-methanone], the half-inhibitory concentration (IC50) was 686 nM.

For the molecule `CC1(C)[C@H]2Cc3c(O)cccc3[C@]1(C)CCN2C(=O)c1ccc(N2CCNCC2)cc1` [Example 26, [(2R,6S)-10-Hydroxy-6,11,11-trimethyl-1,2,5,6-tetrahydro-4H-2,6-methano-benzo[d]azocin-3-yl]-(4-piperazin-1-yl-phenyl)-methanone], half-maximal inhibition (IC50) was put at 2890 nM.

`CC(=O)Nc1ccc(C(=O)N2CC[C@@]3(C)c4cccc(O)c4C[C@@H]2C3(C)C)cc1F` [Example 27, N-{2-Fluoro-4-[(2R,6S)-10-hydroxy-6,11,11-trimethyl-1,2,5,6-tetrahydro-4H-2,6-methano-benzo[d]azocine-3-carbonyl]-phenyl}-acetamide] had a half-maximal inhibitory concentration (IC50) of 629 nM.

`CC(=O)c1ccc(C(=O)N2CC[C@@]3(C)c4cccc(O)c4C[C@@H]2C3(C)C)cc1` [Example 28, 1-{4-[(2R,6S)-10-Hydroxy-6,11,11-trimethyl-1,2,5,6-tetrahydro-4H-2,6-methano-benzo[d]azocine-3-carbonyl]-phenyl}-ethanone]: half-maximal inhibition (IC50) required 3680 nM.

`Cn1c(=O)[nH]c2cc(C(=O)N3CC[C@@]4(C)c5cccc(O)c5C[C@@H]3C4(C)C)ccc21` [Example 29, 5-[(2R,6S)-10-Hydroxy-6,11,11-trimethyl-1,2,5,6-tetrahydro-4H-2,6-methano-benzo[d]azocine-3-carbonyl]-1-methyl-1,3-dihydro-benzoimidazol-2-one]: the IC50 was 1730 nM.

With `COC(=O)c1cccc(C(=O)N2CC[C@@]3(C)c4cccc(O)c4C[C@@H]2C3(C)C)c1` [Example 30, 3-[(2R,6S)-10-Hydroxy-6,11,11-trimethyl-1,2,5,6-tetrahydro-4H-2,6-methano-benzo[d]azocine-3-carbonyl]-benzoic acid methyl ester], 1400 nM corresponded to half-maximal inhibition (IC50).

The molecule `CC1(C)[C@H]2Cc3c(O)cccc3[C@]1(C)CCN2C(=O)c1ccc2cc[nH]c2c1` [Example 31, [(2R,6S)-10-Hydroxy-6,11,11-trimethyl-1,2,5,6-tetrahydro-4H-2,6-methano-benzo[d]azocin-3-yl]-(1H-indol-6-yl)-methanone] registered an IC50 of 88 nM.

For `C#Cc1cc(C(=O)N2CC[C@@]3(C)c4cccc(O)c4C[C@@H]2C3(C)C)ccc1C(=O)N1CCCC1` [Example 32, [3-Ethynyl-4-(pyrrolidine-1-carbonyl)-phenyl]-[(2R,6S)-10-hydroxy-6,11,11-trimethyl-1,2,5,6-tetrahydro-4H-2,6-methano-benzo[d]azocin-3-yl]-methanone], the IC50 worked out at 915 nM.

Turning to `CC1(C)[C@H]2Cc3c(O)cccc3[C@]1(C)CCN2C(=O)c1ccc2c(c1)NC(=O)C2` [Example 33, 6-[(2R,6S)-10-Hydroxy-6,11,11-trimethyl 1,2,5,6-tetrahydro-4H-2,6-methano-benzo[d]azocine-3-carbonyl]-1,3-dihydro-indol-2-one], it took 3490 nM to reach half-maximal inhibition (IC50).

`Cc1nc2cc(C(=O)N3CC[C@@]4(C)c5cccc(O)c5C[C@@H]3C4(C)C)ccc2c(=O)[nH]1` [Example 34, 7-[(2R,6S)-10-Hydroxy-6,11,11-trimethyl-1,2,5,6-tetrahydro-4H-2,6-methano-benzo[d]azocine-3-carbonyl]-2-methyl-3H-quinazolin-4-one] returned an IC50 of 3880 nM.

Take `Cc1cc(C(=O)N2CC[C@@]3(C)c4cccc(O)c4C[C@@H]2C3(C)C)ccc1C(=O)N1CCCC1` [Example 35, [(2R,6S)-10-Hydroxy-6,11,11-trimethyl-1,2,5,6-tetrahydro-4H-2,6-methano-benzo[d]azocin-3-yl]-[3-methyl-4-(pyrrolidine-1-carbonyl)-phenyl]-methanone]: the IC50 was determined as 672 nM.

Take `CNC(=O)c1ccc(C(=O)N2CC[C@@]3(C)c4cccc(O)c4C[C@@H]2C3(C)C)cc1` [Example 36, 4-[(2R,6S)-10-Hydroxy-6,11,11-trimethyl-1,2,5,6-tetrahydro-4H-2,6-methano-benzo[d]azocine-3-carbonyl]-N-methyl-benzamide]: the half-inhibitory concentration (IC50) stood at 3660 nM.

In turn, `CN(C)C(=O)c1ccc(C(=O)N2CC[C@@]3(C)c4cccc(O)c4C[C@@H]2C3(C)C)cc1` [Example 37, 4-[(2R,6S)-10-Hydroxy-6,11,11-trimethyl-1,2,5,6-tetrahydro-4H-2,6-methano-benzo[d]azocine-3-carbonyl]-N,N-dimethyl-benzamide] gave a concentration for half-maximal inhibition (IC50) of 998 nM.

`CN(C)C(=O)c1cccc(C(=O)N2CC[C@@]3(C)c4cccc(O)c4C[C@@H]2C3(C)C)c1` [Example 38, 3-[(2R,6S)-10-Hydroxy-6,11,11-trimethyl-1,2,5,6-tetrahydro-4H-2,6-methano-benzo[d]azocine-3-carbonyl]-N,N-dimethyl-benzamide] gave a half-inhibitory concentration (IC50) of 1440 nM.

`CNC(=O)c1cccc(C(=O)N2CC[C@@]3(C)c4cccc(O)c4C[C@@H]2C3(C)C)c1` [Example 39, 3-[(2R,6S)-10-Hydroxy-6,11,11-trimethyl-1,2,5,6-tetrahydro-4H-2,6-methano-benzo[d]azocine-3-carbonyl]-N-methyl-benzamide] yielded an IC50 of 1590 nM.

Consider `COC[C@H]1CCCN1C(=O)c1cccc(C(=O)N2CC[C@@]3(C)c4cccc(O)c4C[C@@H]2C3(C)C)c1` [Example 40, [(2R,6S)-10-Hydroxy-6,11,11-trimethyl-1,2,5,6-tetrahydro-4H-2,6-methano-benzo[d]azocin-3-yl]-[3-((R)-2-methoxymethyl-pyrrolidine-1-carbonyl)-phenyl]-methanone], for which half-maximal inhibition (IC50) was put at 542 nM.
